In the supplement of paper PMC10307832:

Experiments:
Assay in all cases: relative viability (nuclei count vs DMSO), 5 days (fraction); higher = more cells survive
NCI-H1395 = test system: NCI-H1395
Method in brief: (§1)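 Relative viability was taken as the ratio of nuclei in treated wells to nuclei in vehicle wells. Lung cancer cell lines in 1536-well plates received compounds by pin tool one day after seeding, either one drug alone or a fixed anchor-drug dose plus five library-drug doses (not always all listed) in √10 steps. Nuclei were counted on 4× images after 5 days of treatment, and values are medians of duplicate plates.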

NCI-H1993 = test system: NCI-H1993
Method in brief: as §1

NCI-H2170 = test system: NCI-H2170
Method in brief: as §1

NCI-H3122 = test system: NCI-H3122
Method in brief: as §1

HOP-62 = test system: HOP-62
Method in brief: as §1

NCI-H2342 = test system: NCI-H2342
Method in brief: as §1

NCI-H2085 = test system: NCI-H2085
Method in brief: as §1

ChaGo-K-1 = test system: ChaGo-K-1
Method in brief: as §1

SK-LU-1 = test system: SK-LU-1
Method in brief: as §1

LCLC-97TM1 = test system: LCLC-97TM1
Method in brief: as §1

NCI-H520 = test system: NCI-H520
Method in brief: as §1

NCI-H2126 = test system: NCI-H2126
Method in brief: as §1

NCI-H1975 = test system: NCI-H1975
Method in brief: as §1

LCLC-103H = test system: LCLC-103H
Method in brief: as §1

NCI-H647 = test system: NCI-H647
Method in brief: as §1

LOU-NH91 = test system: LOU-NH91
Method in brief: as §1

NCI-H2405 = test system: NCI-H2405
Method in brief: as §1

HCC-44 = test system: HCC-44
Method in brief: as §1

EMC-BAC-2 = test system: EMC-BAC-2
Method in brief: as §1

EPLC-272H = test system: EPLC-272H
Method in brief: as §1

NCI-H460 = test system: NCI-H460
Method in brief: as §1

NCI-H322M = test system: NCI-H322M
Method in brief: as §1

SMILES: Oc1nc(-c2ccc(C(F)(F)F)cc2)nc2c1CSCC2 [XAV939] + Nc1ncn([C@H]2C[C@H](O)[C@@H](CO)O2)c(=O)n1 [Decitabine] (partner 2 µM)
- relative viability (NCI-H1395; first compound 0.08 µM): 0.77
- relative viability (NCI-H1395; first compound 0.253 µM): 0.683
- relative viability (NCI-H1395; first compound 0.8 µM): 0.795
- relative viability (NCI-H1395; first compound 2.53 µM): 0.688
- relative viability (NCI-H1993; first compound 0.08 µM): 0.527
- relative viability (NCI-H1993; first compound 0.253 µM): 0.224
- relative viability (NCI-H1993; first compound 0.8 µM): 0.567
- relative viability (NCI-H1993; first compound 2.53 µM): 0.467
- relative viability (NCI-H2170; first compound 0.08 µM): 0.472
- relative viability (NCI-H2170; first compound 0.253 µM): 0.484
- relative viability (NCI-H2170; first compound 0.8 µM): 0.455
- relative viability (NCI-H2170; first compound 2.53 µM): 0.385
- relative viability (NCI-H3122; first compound 0.08 µM): 0.572
- relative viability (NCI-H3122; first compound 0.253 µM): 0.401
- relative viability (NCI-H3122; first compound 0.8 µM): 0.51
- relative viability (NCI-H3122; first compound 2.53 µM): 0.394
- relative viability (HOP-62; first compound 0.08 µM): 0.226
- relative viability (HOP-62; first compound 0.253 µM): 0.193
- relative viability (HOP-62; first compound 0.8 µM): 0.223
- relative viability (HOP-62; first compound 2.53 µM): 0.157
- relative viability (NCI-H2342; first compound 0.08 µM): 0.832
- relative viability (NCI-H2342; first compound 0.253 µM): 0.669
- relative viability (NCI-H2342; first compound 0.8 µM): 0.72
- relative viability (NCI-H2342; first compound 2.53 µM): 0.427
- relative viability (NCI-H2085; first compound 0.08 µM): 0.536
- relative viability (NCI-H2085; first compound 0.253 µM): 0.494
- relative viability (NCI-H2085; first compound 0.8 µM): 0.537
- relative viability (NCI-H2085; first compound 2.53 µM): 0.462
- relative viability (ChaGo-K-1; first compound 0.08 µM): 0.495
- relative viability (ChaGo-K-1; first compound 0.253 µM): 0.505
- relative viability (ChaGo-K-1; first compound 0.8 µM): 0.507
- relative viability (ChaGo-K-1; first compound 2.53 µM): 0.494
- relative viability (SK-LU-1; first compound 0.08 µM): 0.665
- relative viability (SK-LU-1; first compound 0.253 µM): 0.523
- relative viability (SK-LU-1; first compound 0.8 µM): 0.652
- relative viability (SK-LU-1; first compound 2.53 µM): 0.688
- relative viability (LCLC-97TM1; first compound 0.08 µM): 0.211
- relative viability (LCLC-97TM1; first compound 0.253 µM): 0.245
- relative viability (LCLC-97TM1; first compound 2.53 µM): 0.21
- relative viability (NCI-H520; first compound 0.08 µM): 0.54
- relative viability (NCI-H520; first compound 0.8 µM): 0.457
- relative viability (NCI-H520; first compound 2.53 µM): 0.495
- relative viability (NCI-H2126; first compound 0.08 µM): 0.559
- relative viability (NCI-H2126; first compound 0.253 µM): 0.537
- relative viability (NCI-H2126; first compound 0.8 µM): 0.595
- relative viability (NCI-H2126; first compound 2.53 µM): 0.481
- relative viability (NCI-H1975; first compound 0.08 µM): 0.382
- relative viability (NCI-H1975; first compound 0.253 µM): 0.357
- relative viability (NCI-H1975; first compound 0.8 µM): 0.379
- relative viability (NCI-H1975; first compound 2.53 µM): 0.354
- relative viability (LCLC-103H; first compound 0.08 µM): 0.756
- relative viability (LCLC-103H; first compound 0.253 µM): 0.587
- relative viability (LCLC-103H; first compound 0.8 µM): 0.687
- relative viability (LCLC-103H; first compound 2.53 µM): 0.642
- relative viability (NCI-H647; first compound 0.08 µM): 0.393
- relative viability (NCI-H647; first compound 0.253 µM): 0.26
- relative viability (NCI-H647; first compound 0.8 µM): 0.283
- relative viability (NCI-H647; first compound 2.53 µM): 0.279
- relative viability (LOU-NH91; first compound 0.08 µM): 0.806
- relative viability (LOU-NH91; first compound 0.253 µM): 0.75
- relative viability (LOU-NH91; first compound 0.8 µM): 0.819
- relative viability (LOU-NH91; first compound 2.53 µM): 0.801
- relative viability (NCI-H2405; first compound 0.08 µM): 0.776
- relative viability (NCI-H2405; first compound 0.253 µM): 0.721
- relative viability (NCI-H2405; first compound 0.8 µM): 0.709
- relative viability (NCI-H2405; first compound 2.53 µM): 0.689
- relative viability (HCC-44; first compound 0.08 µM): 0.969
- relative viability (HCC-44; first compound 0.253 µM): 0.861
- relative viability (HCC-44; first compound 0.8 µM): 0.928
- relative viability (HCC-44; first compound 2.53 µM): 0.878
- relative viability (EMC-BAC-2; first compound 0.08 µM): 1.04
- relative viability (EMC-BAC-2; first compound 0.253 µM): 0.935
- relative viability (EMC-BAC-2; first compound 0.8 µM): 0.884
- relative viability (EMC-BAC-2; first compound 2.53 µM): 0.721
- relative viability (EPLC-272H; first compound 0.08 µM): 0.357
- relative viability (EPLC-272H; first compound 0.253 µM): 0.299
- relative viability (EPLC-272H; first compound 0.8 µM): 0.385
- relative viability (EPLC-272H; first compound 2.53 µM): 0.332
- relative viability (NCI-H460; first compound 0.08 µM): 0.599
- relative viability (NCI-H460; first compound 0.253 µM): 0.443
- relative viability (NCI-H460; first compound 0.8 µM): 0.501
- relative viability (NCI-H460; first compound 2.53 µM): 0.458
- relative viability (NCI-H322M; first compound 0.08 µM): 0.684
- relative viability (NCI-H322M; first compound 0.253 µM): 0.619
- relative viability (NCI-H322M; first compound 0.8 µM): 0.653
- relative viability (NCI-H322M; first compound 2.53 µM): 0.566
